Data: PMC5086648, “Structural and Functional Elucidation of Peptide Ts11 Shows Evidence of a Novel Subfamily of Scorpion Venom Toxins” (Toxins, 2016)
Bridge positions count the residues as written; N and C are the ends. Peptide text beside a SMILES is read from it.

Key:
Kv1.2 (rKV1.2) = assay: TEVC electrophysiology, Kv1.2 in Xenopus oocytes; format: cell-based, rat
Excerpt: (§1) For the expression of the voltage gated potassium channels (rKV1.1, rKV1.2, hKV1.3, rKV1.4, rKV1.5, rKV1.6, Shaker IR, rKV2.1, hKV3.1, rKV4.2, hERG, KV10.1) and the voltage gated sodium channels (rNaV1.1, rNaV1.4, hNaV1.5, mNaV1.6 and DmNav1) in Xenopus oocytes, the linearized plasmids were transcribed using the T7 or SP6 mMESSAGE-mMACHINE transcription kit (Ambion, Waltham, MA, USA). The harvesting of stage V–VI oocytes from anaesthetized female X. laevis frog has been previously described. Oocytes were injected with 30–50 nL of cRNA at a concentration of 1 ng/nL using a micro-injector (Drummond Scientfic, Broomall, PA, USA). The oocytes were incubated in a solution containing (in mM): NaCl, 96; KCl, 2; CaCl2, 1.8; MgCl2, 2 and HEPES, 5 (pH 7.4), supplemented with 50 mg/L gentamycin sulfate.
(§2) Two-electrode voltage-clamp recordings were performed at room temperature (18–22 °C) using a Geneclamp 500 amplifier (Molecular Devices, Silicon Valley, CA, USA) controlled by a pClamp data acquisition system (Axon Instruments, Union City, CA, USA). Whole cell currents from oocytes were recorded 1–10 days after injection. Bath solution composition was ND96 (in mM): NaCl, 96; KCl, 2; CaCl2, 1.8; MgCl2, 2 and HEPES, 5 (pH 7.4) (in mM): NaCl, 2; KCl, 96; CaCl2, 1.8; MgCl2, 2 and HEPES, 5 (pH 7.4). […]

Kv1.3 (hKV1.3) = biological target: T1, Kv1.3 (hKV1.3) (Homo sapiens, UniProt P22001); assay: TEVC electrophysiology, Kv1.3 in Xenopus oocytes; format: cell-based
T1 construct: expressed in transfected cells; host or cells: Xenopus laevis oocytes injected with cRNA
T1 sequence (P22001 whole entry): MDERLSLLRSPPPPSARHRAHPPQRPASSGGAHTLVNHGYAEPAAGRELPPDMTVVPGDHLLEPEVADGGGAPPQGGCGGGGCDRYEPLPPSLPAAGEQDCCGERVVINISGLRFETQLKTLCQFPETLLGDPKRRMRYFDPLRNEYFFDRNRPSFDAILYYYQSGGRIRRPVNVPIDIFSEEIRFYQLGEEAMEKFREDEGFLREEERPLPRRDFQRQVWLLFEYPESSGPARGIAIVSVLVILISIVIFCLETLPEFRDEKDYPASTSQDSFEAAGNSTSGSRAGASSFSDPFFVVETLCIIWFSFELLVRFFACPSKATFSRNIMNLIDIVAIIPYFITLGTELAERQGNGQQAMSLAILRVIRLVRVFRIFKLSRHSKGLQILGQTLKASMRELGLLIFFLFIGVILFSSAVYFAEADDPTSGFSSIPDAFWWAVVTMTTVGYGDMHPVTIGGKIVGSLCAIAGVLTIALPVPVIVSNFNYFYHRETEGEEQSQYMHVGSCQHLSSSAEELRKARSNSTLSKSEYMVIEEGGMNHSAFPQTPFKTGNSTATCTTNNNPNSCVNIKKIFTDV
Excerpt: as §1
Two-electrode voltage-clamp recordings were performed at room temperature (18–22 °C) using a Geneclamp 500 amplifier (Molecular Devices, Silicon Valley, CA, USA) controlled by a pClamp data acquisition system (Axon Instruments, Union City, CA, USA). Whole cell currents from oocytes were recorded 1–10 days after injection. Bath solution composition was ND96 (in mM): NaCl, 96; KCl, 2; CaCl2, 1.8; MgCl2, 2 and HEPES, 5 (pH 7.4) (in mM): NaCl, 2; KCl, 96; CaCl2, 1.8; MgCl2, 2 and HEPES, 5 (pH 7.4). Voltage and current electrodes were filled with KCl 3 M. Resistances of both electrodes were kept between […]. The elicited currents were sampled at 1 kHz and filtered at 0.5 kHz (for potassium currents) or sampled at 20 kHz and filtered at 2 kHz (for sodium currents) using a four-pole low-pass Bessel filter. Leak subtraction was performed using a -P/4 protocol.
The KV1.1–KV1.6, KV2.1, KV3.1 and KV4.2 and Shaker IR currents were evoked by 250 ms depolarizations to 0 mV followed by a 250 ms pulse to −50 mV, from a holding potential of −90 mV. Current traces of hERG channels were elicited by applying a pulse from −90 mV to +40 mV for 2.5 s followed by a step to −120 mV for 2.5 s. The Kv 10.1 currents were evoked by 1 s depolarization to 0 mV, from a holding potential of −90 mV. Sodium current traces were evoked, from a holding potential of −90 mV, by 100 ms depolarization to 0 mV. In order to investigate the current-voltage relationship, current traces were evoked by 10 mV depolarization steps from a holding potential of −90 mV.
To assess the concentration-response relationship of Ts11 on Kv1.3, data were fitted with the Hill equation: y = 100/[1 + (IC50/[toxin])^h], where y is the amplitude of the toxin-induced effect, IC50 is the toxin concentration at half maximal efficacy, [toxin] is the toxin concentration and h is the Hill coefficient (Hill coefficient: 0.8). Current-voltage relationship was determined by 100 ms step depolarization between −90 and +70 mV, using 10 mV increments. All data represent at least 3 independent experiments (n = 3) and are presented as mean ± standard error.

Kv4.2 (rKV4.2) = assay: TEVC electrophysiology, Kv4.2 in Xenopus oocytes; format: cell-based, rat
Excerpt: as §1, §2

Kv10.1 = assay: TEVC electrophysiology, Kv10.1 in Xenopus oocytes; format: cell-based; conditions: 3 μM, native toxin, two-electrode voltage-clamp, ND96 pH 7.4, 18–22 °C, 1 s depolarization to 0 mV from −90 mV, n ≥ 3
Excerpt: as §1, §2

hERG = assay: TEVC electrophysiology, hERG in Xenopus oocytes; format: cell-based
Excerpt: as §1, §2

Shaker IR = assay: TEVC electrophysiology, Shaker IR in Xenopus oocytes; format: cell-based; conditions: 3 μM, native toxin, two-electrode voltage-clamp, ND96 pH 7.4, 18–22 °C, 250 ms depolarizations to 0 mV from −90 mV, n ≥ 3
Excerpt: as §1, §2

Nav1.1 (rNaV1.1) = assay: TEVC electrophysiology, Nav1.1 in Xenopus oocytes; format: cell-based, rat; conditions: 1 μM, two-electrode voltage-clamp, 100 ms depolarization to 0 mV from −90 mV, number of cells ≥ 3
Excerpt: as §1, §2

Nav1.4 (rNaV1.4) = assay: TEVC electrophysiology, Nav1.4 in Xenopus oocytes; format: cell-based, rat; conditions: 1 μM, two-electrode voltage-clamp, 100 ms depolarization to 0 mV from −90 mV, number of cells ≥ 3
Excerpt: as §1, §2

Nav1.5 (hNaV1.5) = assay: TEVC electrophysiology, Nav1.5 in Xenopus oocytes; format: cell-based, human; conditions: 1 μM, two-electrode voltage-clamp, 100 ms depolarization to 0 mV from −90 mV, number of cells ≥ 3
Excerpt: as §1, §2

Nav1.6 (mNaV1.6) = assay: TEVC electrophysiology, Nav1.6 in Xenopus oocytes; format: cell-based, mouse; conditions: 1 μM, two-electrode voltage-clamp, 100 ms depolarization to 0 mV from −90 mV, number of cells ≥ 3
Excerpt: as §1, §2

DmNav1 = assay: TEVC electrophysiology, DmNav1 in Xenopus oocytes; format: cell-based, insect; conditions: 1 μM, two-electrode voltage-clamp, 100 ms depolarization to 0 mV from −90 mV, number of cells ≥ 3
Excerpt: as §1, §2

Kv channels = assay: TEVC electrophysiology, Kv channel panel in Xenopus oocytes; format: cell-based; conditions: discussion, Kv channels overall
Excerpt: as §1, §2

Nav channels = assay: TEVC electrophysiology, Nav channel panel in Xenopus oocytes; format: cell-based; conditions: discussion; tested at 1 μM
Excerpt: as §1, §2

[1] = 3 μM, native toxin, two-electrode voltage-clamp, Xenopus oocytes, ND96 pH 7.4, 18–22 °C, 250 ms depolarizations to 0 mV from −90 mV, n ≥ 3
[2] = 5 μM, compared with 3 μM, data not shown

With CC(C)C[C@@H]1NC(=O)CNC(=O)[C@@H](NC(=O)[C@H](CCCCN)NC(=O)[C@@H]2CCCN2C(=O)[C@@H](N)CCCCN)CSSC[C@@H]2NC(=O)[C@@H]3CSSC[C@@H]4NC(=O)[C@H](CCCCN)NC(=O)CNC(=O)[C@H](CO)NC(=O)[C@H](CO)NC(=O)[C@H](CSSC[C@H](NC(=O)[C@H](C)NC(=O)CNC(=O)[C@H](CC(N)=O)NC(=O)[C@H](C(C)C)NC4=O)C(=O)N[C@@H](CC(=O)O)C(=O)N[C@H](C(=O)N[C@@H](CO)C(=O)O)CSSC[C@H](NC1=O)C(=O)N[C@@H](CCCNC(=N)N)C(=O)N[C@@H](Cc1ccc(O)cc1)C(=O)N[C@@H](CCCNC(=N)N)C(=O)N3)NC(=O)CNC(=O)CNC(=O)[C@H](CO)NC2=O [Ts11] (H-KPKCGLCRYRCCSGGCSSGKCVNGACDCS-OH; disulfide 4-12, 7-28, 11-21, 16-26; N-terminus and C-terminus assumed) the “blocking effect on Kv1.2” value (Kv1.2 (rKV1.2); [1]) was 25%, the “increase in blockage at higher concentration, Kv1.2” value (Kv1.2 (rKV1.2); [2]) was “no significant increase in blockage” and the “blocking effect on Kv1.3” value (Kv1.3 (hKV1.3); [1]) was 27%. The “alteration of channel activation properties (Kv1.3)” value (Kv1.3 (hKV1.3); 5 μM, V1/2 with toxin vs control) was “No significant alteration of properties of channel activation”, the “Hill coefficient, Kv1.3” value (Kv1.3 (hKV1.3); concentration-response fit, Hill equation, n ≥ 3) was 0.8 and the IC50 (Kv1.3 (hKV1.3); concentration-response, Hill equation fit, two-electrode voltage-clamp, Xenopus oocytes, pH 7.4, 18–22 °C, mean ± standard error, n ≥ 3, read-out: IC50, inhibition of Kv1.3 currents) was 17.1 ± 3.3 µM. The “V1/2 of Kv1.3 activation” value (Kv1.3 (hKV1.3); toxin condition, 5 μM (Figure 3B), normalized peak Itail, control 17.3 ± 0.6 mV, n ≥ 3, mean ± standard error) was 17.6 ± 0.7 mV, the “blocking effect on Kv4.2” value (Kv4.2 (rKV4.2); [1]) was 25% and the “increase in blockage at higher concentration, Kv4.2” value (Kv4.2 (rKV4.2); [2]) was “no significant increase in blockage”. The “blocking effect on Kv10.1” value (Kv10.1) was 15%, the “blocking effect on hERG” value (hERG; 3 μM, native toxin, two-electrode voltage-clamp, Xenopus oocytes, pH 7.4, 18–22 °C, pulse −90 mV to +40 mV for 2.5 s, step to −120 mV for 2.5 s, n ≥ 3) was 12% and the “increase in blockage at higher concentration, hERG” value (hERG; 10 μM, compared with 3 μM, data not shown) was “no significant increase in blockage”. For the same molecule, the “blocking effect on Shaker IR” value (Shaker IR) was 10%, the “activity on Nav1.1” value (Nav1.1 (rNaV1.1)) was “inactive” and the “activity on Nav1.4” value (Nav1.4 (rNaV1.4)) was “inactive”. The “activity on Nav1.5” value (Nav1.5 (hNaV1.5)) was “inactive”, the “activity on Nav1.6” value (Nav1.6 (mNaV1.6)) was “inactive” and the “activity on insect channel DmNav1” value (DmNav1) was “inactive”. The “effect on kinetics of Kv channel gating” value (Kv channels) was “without altering the kinetics of channel gating”, the “potency as Kv channel blocker (in words)” value (Kv channels) was “not a potent blocker of Kv channels” and the “activity on Nav channels overall (in words)” value (Nav channels) was “does not target Nav channels”.
